Data taken from ChEMBL document CHEMBL4417636, “Small molecule inhibitors of pendrin ion exchange and pharmaceutical compositions” (2017).
pIC50: −log10 of the molar value.

Molecular target: T1, Pendrin (Homo sapiens, UniProt O43511)
T1 sequence (O43511 whole entry): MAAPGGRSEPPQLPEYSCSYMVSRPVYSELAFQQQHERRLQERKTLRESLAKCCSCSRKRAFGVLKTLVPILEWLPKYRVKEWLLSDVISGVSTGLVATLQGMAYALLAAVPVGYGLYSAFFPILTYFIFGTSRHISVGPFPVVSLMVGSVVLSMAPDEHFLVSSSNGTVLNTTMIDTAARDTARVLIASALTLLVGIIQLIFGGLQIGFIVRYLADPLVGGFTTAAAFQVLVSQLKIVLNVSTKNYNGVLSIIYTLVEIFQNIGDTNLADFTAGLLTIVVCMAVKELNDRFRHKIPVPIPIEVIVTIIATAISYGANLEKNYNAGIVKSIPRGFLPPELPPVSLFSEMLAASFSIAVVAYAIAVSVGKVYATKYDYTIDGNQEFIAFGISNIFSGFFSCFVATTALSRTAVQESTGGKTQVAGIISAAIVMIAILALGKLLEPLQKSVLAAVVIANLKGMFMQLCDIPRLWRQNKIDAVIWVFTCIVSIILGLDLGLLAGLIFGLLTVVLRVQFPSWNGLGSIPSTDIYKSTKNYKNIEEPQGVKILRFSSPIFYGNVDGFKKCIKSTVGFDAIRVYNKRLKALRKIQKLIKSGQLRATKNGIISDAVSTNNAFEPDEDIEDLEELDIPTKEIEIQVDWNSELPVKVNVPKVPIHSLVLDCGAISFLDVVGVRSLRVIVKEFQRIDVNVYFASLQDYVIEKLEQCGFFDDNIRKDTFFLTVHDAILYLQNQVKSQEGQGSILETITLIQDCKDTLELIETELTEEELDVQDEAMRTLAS
Experiment: Inhibition of human pendrin expressed in FRT cells co-expressing EYFP-HIF assessed as reduction in pendrin-mediated C17F exchange incubated for 10 mins by pH-sensitive fluorescent probe BCECF-AM based fluorescence assay relative to control
Format: cell-based

## Cc1n[nH]c(-c2cc(S(=O)(=O)NC3CCCc4ccccc43)c(C)s2)c1C (stereo unspecified)
  pIC50: 5.05
